The supplement of paper PMC10627819

Key:
[1] = test system: B. subtilis 168; assay: Bliss interaction score (quartile over a dose matrix) (fitness difference); higher = more antagonism (negative = synergy)
Procedure, shortened: (§1)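 The Bliss score is observed minus expected fitness under the product model, reported as quartiles over technical, biological and donor/recipient replicates. Fitness is the OD595 at entry into stationary phase divided by the plate's robust no-drug mean and capped at 1. Single-drug fitness was inferred from combination data.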

[2] = test system: S. aureus DSM 20231; assay: as above
Procedure, shortened: as §1

[3] = test system: S. aureus Newman; assay: as above
Procedure, shortened: as §1

[4] = test system: S. pneumoniae D39V; assay: as above
Procedure, shortened: as §1

[5] = test system: B. subtilis 168; assay: fitness (endpoint OD595 vs no drug) (fraction); higher = more growth
Procedure, shortened: (§2)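 Plates with 384 wells were inoculated at OD595 0.01 using 30 µl of TSB, LB Lennox or CY, or 55 µl for S. pneumoniae. Incubation was at 37 °C, with OD595 measured every 30 min for 14 h. Fitness is the stationary-phase transition optical density over the robust mean of no-drug control wells, after first-reading background subtraction; it is capped at 1.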

[6] = test system: S. pneumoniae D39V; assay: as above
Procedure, shortened: as §2
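For Bliss interaction score (quartile over a dose matrix) in this document: first quartile when negative (synergy) and third quartile when positive (antagonism).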

C[C@H]1c2cccc(O)c2C(=O)C2=C(O)[C@]3(O)C(=O)C(C(N)=O)=C(O)[C@@H](N(C)C)[C@@H]3[C@@H](O)[C@@H]21 [Doxycycline] + CCC(C)C1C(=O)NC(=C)C(=O)NC(C(=O)NC(CSCC(C(=O)N1)NC(=O)/C(=C/C)/NC(=O)C(C(C)CC)N)C(=O)NC2C(SCC(NC(=O)CNC(=O)C3CCCN3C2=O)C(=O)NC(CCCCN)C(=O)NC4C(SCC(NC(=O)CNC(=O)C(NC(=O)C(NC(=O)C(NC(=O)CNC4=O)C)CC(C)C)CCSC)C(=O)NC(CC(=O)N)C(=O)NC(CCSC)C(=O)NC(CCCCN)C(=O)NC5C(SCC6C(=O)NC(C(=O)NC(CSC(C(C(=O)N6)NC(=O)C(NC5=O)C)C)C(=O)NC(CO)C(=O)NC(C(C)CC)C(=O)NC(CC7=CN=CN7)C(=O)NC(C(C)C)C(=O)NC(=C)C(=O)NC(CCCCN)C(=O)O)CC8=CN=CN8)C)C)C)CC(C)C [Nisin]
main component drawn
Conditions | Bliss interaction score
[1] | 0.0503
[2] | -0.0392
[3] | 0.0561
[4] | -0.161

main component drawn
Conditions | fitness
[5], first compound 0.02 µg/mL, partner 0.5 µg/mL | 0.836
[5], first compound 0.02 µg/mL, partner 1 µg/mL | 0.809
[5], first compound 0.02 µg/mL, partner 2 µg/mL | 0.476
[5], first compound 0.04 µg/mL, partner 0.5 µg/mL | 0.755
[5], first compound 0.04 µg/mL, partner 1 µg/mL | 0.741
[5], first compound 0.04 µg/mL, partner 2 µg/mL | 0.403
[5], first compound 0.08 µg/mL, partner 0.5 µg/mL | 0.61
[5], first compound 0.08 µg/mL, partner 1 µg/mL | 0.541
[5], first compound 0.08 µg/mL, partner 2 µg/mL | 0.0887
[6], first compound 0.0155 µg/mL, partner 0.4275 µg/mL | 0.935
[6], first compound 0.0155 µg/mL, partner 0.855 µg/mL | 0.803
[6], first compound 0.0155 µg/mL, partner 1.6 µg/mL | 0.192
[6], first compound 0.0155 µg/mL, partner 1.71 µg/mL | 0.0645
[6], first compound 0.0155 µg/mL, partner 3.2 µg/mL | 0.017
[6], first compound 0.0155 µg/mL, partner 6.4 µg/mL | 0.0088
[6], first compound 0.031 µg/mL, partner 0.4275 µg/mL | 0.89
[6], first compound 0.031 µg/mL, partner 0.855 µg/mL | 0.596
[6], first compound 0.031 µg/mL, partner 1.71 µg/mL | 0.0413
[6], first compound 0.062 µg/mL, partner 0.4275 µg/mL | 0.846
[6], first compound 0.062 µg/mL, partner 1.71 µg/mL | 0.0711

fitness, one replicate, main component drawn
Conditions | partner 1.25 µg/mL | partner 1.6 µg/mL | partner 2.5 µg/mL | partner 3.2 µg/mL | partner 4 µg/mL | partner 5 µg/mL | partner 6.4 µg/mL | partner 8 µg/mL | partner 16 µg/mL
[5], first compound 0.02 µg/mL | 0.915 | 0.287 | 0.481 | 0.0387 | 0.0411 | 0.0601 | 0.0419 | 0.0354 | 0.0177
[5], first compound 0.04 µg/mL | 0.935 | 0.358 | 0.464 | 0.0224 | 0.137 | 0.0251 | 0.035 | 0.0271 | 0.024
[5], first compound 0.08 µg/mL | 0.594 | 0.0173 | 0.165 | 0.0251 | 0.0169 | 0.0318 | 0.0245 | 0.0228 | 0.0199
[6], first compound 0.003875 µg/mL | – | 0.0092 | – | 0 | – | – | 0.0176 | – | –
[6], first compound 0.00775 µg/mL | – | 0.0172 | – | 0 | – | – | 0.0097 | – | –
[6], first compound 0.031 µg/mL | – | 0.222 | – | 0.0345 | – | – | 0 | – | –
[6], first compound 0.062 µg/mL | – | 0.0897 | – | 0.0057 | – | – | 0.0088 | – | –

C[C@H]1c2cccc(O)c2C(=O)C2=C(O)[C@]3(O)C(=O)C(C(N)=O)=C(O)[C@@H](N(C)C)[C@@H]3[C@@H](O)[C@@H]21 [Doxycycline] + CCC[C@@H]1C[C@@H](C(=O)N[C@@H]([C@H]2O[C@H](SC)[C@H](O)[C@@H](O)[C@H]2O)[C@@H](C)O)N(C)C1 [Lincomycin]
Conditions | Bliss interaction score
[1] | 0.0648
[2] | -0.228
[3] | -0.0975
[4] | -0.13

fitness
Conditions | partner 0.1 µg/mL | partner 0.2 µg/mL | partner 0.215 µg/mL | partner 0.4 µg/mL | partner 0.43 µg/mL | partner 0.8 µg/mL | partner 0.86 µg/mL
[5], first compound 0.02 µg/mL | 0.918 | 0.888 | – | 0.885 | – | – | –
[5], first compound 0.04 µg/mL | 0.764 | 0.72 | – | 0.717 | – | – | –
[6], first compound 0.0155 µg/mL | – | 0.76 | 0.726 | 0.657 | 0.62 | 0.213 | 0.344
[6], first compound 0.031 µg/mL | – | – | 0.716 | – | 0.625 | – | 0.298
[6], first compound 0.062 µg/mL | – | – | 0.674 | – | 0.481 | – | 0.221

fitness, one replicate
Conditions | first compound 0.003875 µg/mL | first compound 0.00775 µg/mL | first compound 0.02 µg/mL | first compound 0.031 µg/mL | first compound 0.04 µg/mL | first compound 0.062 µg/mL | first compound 0.08 µg/mL
[5], partner 0.8 µg/mL | – | – | 0.881 | – | 0.693 | – | 0.209
[5], partner 1.6 µg/mL | – | – | 0.792 | – | 0.549 | – | 0.153
[6], partner 0.2 µg/mL | 0.822 | 0.77 | – | 0.636 | – | 0.374 | –
[6], partner 0.4 µg/mL | 0.748 | 0.711 | – | 0.398 | – | 0.146 | –
[6], partner 0.8 µg/mL | 0.231 | 0.303 | – | 0.163 | – | 0.0672 | –

C[C@H]1c2cccc(O)c2C(=O)C2=C(O)[C@]3(O)C(=O)C(C(N)=O)=C(O)[C@@H](N(C)C)[C@@H]3[C@@H](O)[C@@H]21 [Doxycycline] + CCN(CC)CCOC(=O)c1ccc(N)cc1 [Procaine]
Conditions | Bliss interaction score
[1] | -0.0366
[2] | -0.0922
[3] | 0.0409
[4] | 0.0386

fitness
Conditions | partner 85.5 µg/mL | partner 171 µg/mL | partner 342 µg/mL
[5], first compound 0.02 µg/mL | 0.892 | 0.855 | 0.844
[5], first compound 0.04 µg/mL | 0.742 | 0.707 | 0.7
[5], first compound 0.08 µg/mL | – | 0.363 | –
[6], first compound 0.0155 µg/mL | 0.972 | 0.95 | 0.955
[6], first compound 0.031 µg/mL | 0.862 | 0.835 | 0.849
[6], first compound 0.062 µg/mL | 0.77 | 0.753 | 0.744

fitness, [6], one replicate
Conditions | partner 85.5 µg/mL | partner 171 µg/mL | partner 342 µg/mL
first compound 0.003875 µg/mL | ≥ 1 | ≥ 1 | ≥ 1
first compound 0.00775 µg/mL | ≥ 1 | 0.971 | 0.994

C[C@H]1c2cccc(O)c2C(=O)C2=C(O)[C@]3(O)C(=O)C(C(N)=O)=C(O)[C@@H](N(C)C)[C@@H]3[C@@H](O)[C@@H]21 [Doxycycline] + CN1C2=CC=CC=C2N=C3C1=CC=CC3=O [Pyocyanin]
Conditions | Bliss interaction score
[1] | 0.092
[2] | 0.0677
[3] | -0.0231
[4] | 0.127

Conditions | fitness
[5], first compound 0.02 µg/mL, partner 1.25 µg/mL | 0.875
[5], first compound 0.02 µg/mL, partner 2.5 µg/mL | 0.828
[5], first compound 0.02 µg/mL, partner 5 µg/mL | 0.737
[5], first compound 0.04 µg/mL, partner 1.25 µg/mL | 0.775
[5], first compound 0.04 µg/mL, partner 2.5 µg/mL | 0.692
[5], first compound 0.04 µg/mL, partner 5 µg/mL | 0.605
[5], first compound 0.08 µg/mL, partner 1.25 µg/mL | 0.613
[5], first compound 0.08 µg/mL, partner 2.5 µg/mL | 0.559
[5], first compound 0.08 µg/mL, partner 5 µg/mL | 0.36
[6], first compound 0.0155 µg/mL, partner 0.325 µg/mL | ≥ 1
[6], first compound 0.0155 µg/mL, partner 0.65 µg/mL | ≥ 1
[6], first compound 0.0155 µg/mL, partner 1.3 µg/mL | 0.823
[6], first compound 0.031 µg/mL, partner 0.325 µg/mL | 0.941
[6], first compound 0.031 µg/mL, partner 0.65 µg/mL | 0.97
[6], first compound 0.062 µg/mL, partner 0.325 µg/mL | 0.857
[6], first compound 0.062 µg/mL, partner 0.65 µg/mL | 0.87

fitness, [6], one replicate
Conditions | first compound 0.003875 µg/mL | first compound 0.00775 µg/mL | first compound 0.031 µg/mL | first compound 0.062 µg/mL
partner 0.325 µg/mL | ≥ 1 | ≥ 1 | – | –
partner 0.65 µg/mL | ≥ 1 | 0.997 | – | –
partner 1.3 µg/mL | 0.741 | 0.737 | 0.854 | 0.694
